The text below walks through data of article PMC6934184, “Selective DNA-PKcs inhibition extends the therapeutic index of localized radiotherapy and chemotherapy” (The Journal of Clinical Investigation, 2019).

For the test, the target named is T1, WNK2 (Homo sapiens, UniProt Q9Y3S1).
T1 construct: purchased Thermo Fisher Scientific (Life Technologies) SelectScreen
The experiment in a line: SelectScreen LanthaScreen. The format is binding. The conditions noted are these: read-out: % displacement. The method, boiled down:
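SelectScreen broad panel; activity (Z'LYTE, Adapta) plus binding formats. ATP: Km app for CSF1R Z'LYTE; 10 for CAMK1 Adapta. Readout = % per kinase.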
Background: TR-FRET usually uses a lanthanide donor and a delayed reading to cut background.

T1 sequence (Q9Y3S1 whole entry): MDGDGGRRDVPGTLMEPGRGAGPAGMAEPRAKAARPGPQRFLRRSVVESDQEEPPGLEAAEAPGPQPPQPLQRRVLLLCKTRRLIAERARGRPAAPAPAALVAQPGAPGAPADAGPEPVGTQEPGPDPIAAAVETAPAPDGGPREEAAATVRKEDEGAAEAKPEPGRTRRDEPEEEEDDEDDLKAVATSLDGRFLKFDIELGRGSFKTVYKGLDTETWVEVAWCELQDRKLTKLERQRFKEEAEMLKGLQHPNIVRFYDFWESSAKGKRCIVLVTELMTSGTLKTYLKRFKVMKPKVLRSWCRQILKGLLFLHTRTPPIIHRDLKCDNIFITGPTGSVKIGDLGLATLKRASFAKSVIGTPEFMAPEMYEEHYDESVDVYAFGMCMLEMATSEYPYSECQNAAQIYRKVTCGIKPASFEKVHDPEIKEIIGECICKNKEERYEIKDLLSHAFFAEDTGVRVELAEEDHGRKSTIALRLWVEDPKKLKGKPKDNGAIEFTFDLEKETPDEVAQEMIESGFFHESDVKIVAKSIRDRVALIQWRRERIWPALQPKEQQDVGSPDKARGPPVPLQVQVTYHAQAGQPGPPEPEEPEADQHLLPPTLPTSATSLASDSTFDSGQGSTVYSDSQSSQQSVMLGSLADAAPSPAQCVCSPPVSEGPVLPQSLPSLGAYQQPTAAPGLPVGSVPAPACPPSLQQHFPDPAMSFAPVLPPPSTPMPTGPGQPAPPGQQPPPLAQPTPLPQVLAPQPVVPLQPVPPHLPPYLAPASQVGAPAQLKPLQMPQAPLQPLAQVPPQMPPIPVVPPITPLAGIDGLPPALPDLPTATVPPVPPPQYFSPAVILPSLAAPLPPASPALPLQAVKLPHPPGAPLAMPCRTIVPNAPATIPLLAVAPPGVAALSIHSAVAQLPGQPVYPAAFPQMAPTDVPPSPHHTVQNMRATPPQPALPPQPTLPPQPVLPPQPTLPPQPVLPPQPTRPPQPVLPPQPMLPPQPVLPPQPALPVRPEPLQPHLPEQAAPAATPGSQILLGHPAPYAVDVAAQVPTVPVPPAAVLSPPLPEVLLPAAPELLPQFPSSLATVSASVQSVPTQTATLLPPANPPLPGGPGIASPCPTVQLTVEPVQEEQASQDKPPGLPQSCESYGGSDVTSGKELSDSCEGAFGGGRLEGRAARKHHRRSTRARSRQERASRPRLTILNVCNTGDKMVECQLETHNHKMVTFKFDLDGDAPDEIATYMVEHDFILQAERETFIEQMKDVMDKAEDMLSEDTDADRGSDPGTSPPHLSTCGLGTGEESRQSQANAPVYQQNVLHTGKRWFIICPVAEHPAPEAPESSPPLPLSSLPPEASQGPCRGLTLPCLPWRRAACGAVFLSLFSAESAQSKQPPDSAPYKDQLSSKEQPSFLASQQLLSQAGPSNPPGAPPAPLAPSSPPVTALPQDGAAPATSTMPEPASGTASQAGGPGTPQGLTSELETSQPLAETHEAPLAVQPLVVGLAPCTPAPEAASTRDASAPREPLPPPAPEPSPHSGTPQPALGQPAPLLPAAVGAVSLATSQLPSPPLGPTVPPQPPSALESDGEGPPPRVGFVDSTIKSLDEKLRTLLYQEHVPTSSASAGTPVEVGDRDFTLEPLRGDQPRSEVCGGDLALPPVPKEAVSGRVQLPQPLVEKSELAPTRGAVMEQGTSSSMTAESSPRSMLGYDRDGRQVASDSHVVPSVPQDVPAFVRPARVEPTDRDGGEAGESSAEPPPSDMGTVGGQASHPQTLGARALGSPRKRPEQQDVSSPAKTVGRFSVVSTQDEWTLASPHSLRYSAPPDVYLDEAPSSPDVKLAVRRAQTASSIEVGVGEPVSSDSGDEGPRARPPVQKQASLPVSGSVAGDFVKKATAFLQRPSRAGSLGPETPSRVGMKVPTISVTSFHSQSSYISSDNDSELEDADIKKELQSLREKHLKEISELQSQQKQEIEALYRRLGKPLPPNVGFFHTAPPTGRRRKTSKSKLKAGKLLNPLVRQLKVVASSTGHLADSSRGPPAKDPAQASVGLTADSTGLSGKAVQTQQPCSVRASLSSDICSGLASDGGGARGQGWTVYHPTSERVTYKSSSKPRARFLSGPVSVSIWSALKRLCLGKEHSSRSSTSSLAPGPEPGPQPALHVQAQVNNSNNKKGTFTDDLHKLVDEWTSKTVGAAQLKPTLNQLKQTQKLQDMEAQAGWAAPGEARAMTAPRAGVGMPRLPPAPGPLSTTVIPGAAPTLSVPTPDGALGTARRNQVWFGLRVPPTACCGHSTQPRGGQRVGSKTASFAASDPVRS

Consider `CN(C(=O)CN1CCOCC1)c1ccc2sc3c(-c4cccc5c(=O)cc(N6CC7CCC(C6)O7)oc45)cccc3c2c1` [NU5455], for which the inhibition at 1 µM is -2.5%.
